From DBAASP
In brackets after ≈: the same amount, converted by molar mass.

Experiments:
Assay in all cases: ≥ marks a high value that may be exact or a test limit, other limits are often not marked, values filed in µg/mL are converted to µM
[1] = tested on: Aeromonas salmonicida NCTC 7812
Vibrio alginolyticus = tested on: Vibrio alginolyticus
Lactococcus garvieae = tested on: Lactococcus garvieae
Escherichia coli = tested on: Escherichia coli
[2] = tested on: Vibrio anguillarum ATCC 19264
Klebsiella pneumoniae = tested on: Klebsiella pneumoniae
[3] = tested on: Escherichia coli ATCC 25922
Streptococcus iniae = tested on: Streptococcus iniae
[4] = tested on: Lactococcus garvieae 00-1422
[5] = tested on: Enterococcus faecalis ATCC 29212
Enterococcus faecalis = tested on: Enterococcus faecalis
Aeromonas salmonicida = tested on: Aeromonas salmonicida
Staphylococcus aureus = tested on: Staphylococcus aureus
Aeromonas hydrophila = tested on: Aeromonas hydrophila
Shigella flexneri = tested on: Shigella flexneri
[6] = tested on: Shigella flexneri ATCC 12022
[7] = tested on: Streptococcus iniae 00-1425
Pseudomonas aeruginosa = tested on: Pseudomonas aeruginosa
[8] = tested on: Bacillus subtilis KCTC 1918
[9] = tested on: Salmonella typhimurium KCTC 1926
[10] = tested on: Streptococcus pyogenes KCTC 3096
[11] = tested on: Candida albicans TIMM 1768
[12] = tested on: Staphylococcus aureus KCTC 1621
[13] = tested on: Pseudomonas aeruginosa KCTC 1637
[14] = tested on: Aspergillus fumigatus KCTC 4165
[15] = tested on: Escherichia coli KCTC 1682
Escherichia coli D31 = tested on: Escherichia coli D31
Escherichia coli 1106 = tested on: Escherichia coli 1106
Escherichia coli D22 = tested on: Escherichia coli D22
Salmonella typhimurium = tested on: Salmonella typhimurium
Pseudomonas alginovora = tested on: Pseudomonas alginovora
Aerococcus viridans = tested on: Aerococcus viridans
Micrococcus luteus = tested on: Micrococcus luteus
Bacillus megaterium = tested on: Bacillus megaterium
[16] = tested on: Pseudoalteromonas carrageenovora ATCC 43555
Escherichia coli W3110 = tested on: Escherichia coli W3110
[17] = tested on: Candida albicans NBRC 1385
[18] = tested on: Staphylococcus aureus ATCC 6538P
[19] = tested on: Escherichia coli K-12 594
[20] = tested on: Staphylococcus aureus SPM 101
[21] = tested on: Staphylococcus aureus NBRC 100910
Escherichia coli SPE 001 = tested on: Escherichia coli SPE 001
[22] = tested on: Staphylococcus aureus SR1550
[23] = tested on: Pseudomonas aeruginosa PAK
[24] = tested on: Streptococcus mutans UA159
[25] = tested on: Streptococcus mitis ATCC 903
[26] = tested on: Streptococcus gordonii Challis DL1
[27] = tested on: Streptococcus sanguinis NY101

CC[C@H](C)[C@H](NC(=O)CNC(=O)[C@H](CCCN=C(N)N)NC(=O)[C@H](Cc1ccccc1)NC(=O)[C@@H](NC(=O)[C@H](Cc1cnc[nH]1)NC(=O)[C@H](Cc1cnc[nH]1)NC(=O)[C@@H](NC(=O)[C@@H](N)Cc1ccccc1)[C@@H](C)CC)[C@@H](C)CC)C(=O)N[C@H](C(=O)N[C@@H](Cc1cnc[nH]1)C(=O)N[C@@H](C)C(=O)NCC(=O)N[C@@H](CCCN=C(N)N)C(=O)N[C@@H](CO)C(=O)N[C@H](C(=O)NCC(=O)N[C@@H](CCCN=C(N)N)C(=O)N[C@@H](Cc1ccccc1)C(=O)N[C@@H](CC(C)C)C(=O)N[C@H](C(=O)NCC(=O)O)[C@@H](C)O)[C@@H](C)CC)C(C)C [FIHHIFRGIVHAGRSIGRFLTG]
MIC [1]: ≥ 80.3 µM | MIC (Vibrio alginolyticus): 2.53 µM (≈ 6.3 µg/mL) | MIC (Lactococcus garvieae): 1.77 µM (≈ 4.42 µg/mL) | MIC (Escherichia coli): 1.24 µM (≈ 3.1 µg/mL) | MIC [2]: 3.55 µM (≈ 8.85 µg/mL) | MIC (Klebsiella pneumoniae): 2.53 µM (≈ 6.3 µg/mL) | MIC [3]: 80.3 µM (≈ 200 µg/mL) | MIC (Streptococcus iniae): 1.24 µM (≈ 3.1 µg/mL) | MIC [4]: 20.1 µM (≈ 50 µg/mL) | MIC [5]: 1.26 µM (≈ 3.14 µg/mL) | MIC (Enterococcus faecalis): 5.02 µM (≈ 12.5 µg/mL) | MIC (Aeromonas salmonicida): 5.02 µM (≈ 12.5 µg/mL) | MIC (Staphylococcus aureus): 1.24 µM (≈ 3.1 µg/mL) | MIC (Aeromonas hydrophila): 0.642 µM (≈ 1.6 µg/mL) | MIC (Shigella flexneri): 2.53 µM (≈ 6.3 µg/mL) | MIC [6]: 20.1 µM (≈ 50 µg/mL) | MIC [7]: 2.51 µM (≈ 6.25 µg/mL) | MIC (Pseudomonas aeruginosa): 10 µM (≈ 25 µg/mL)

CCC(C)C(NC(=O)C(CCCCN)NC(=O)C(CCCCN)NC(=O)C(CC(C)C)NC(=O)C(CCCCN)NC(=O)C(CCC(=O)O)NC(=O)CN)C(=O)NCC(=O)NC(CCC(N)=O)C(=O)NC(CCCCN)C(=O)NC(C(=O)NC(CCCCN)C(=O)NC(CC(N)=O)C(=O)NC(Cc1ccccc1)C(=O)NC(Cc1ccccc1)C(=O)NC(CCC(N)=O)C(=O)NC(CCCCN)C(=O)NC(CC(C)C)C(=O)O)C(C)CC (stereo unspecified) [GEKLKKIGQKIKNFFQKL]
MIC [8]: ≥ 50 µM | MIC [9]: 12.5 µM (≈ 26.8 µg/mL) | MIC [10]: ≥ 50 µM | MIC [11]: ≥ 50 µM | MIC [12]: ≥ 50 µM | MIC [13]: 12.5 µM (≈ 26.8 µg/mL) | MIC [14]: ≥ 100 µM | MIC [15]: ≥ 50 µM

CC[C@H](C)[C@H](NC(=O)CN)C(=O)NCC(=O)N[C@@H](CCCCN)C(=O)N[C@@H](Cc1ccccc1)C(=O)N[C@@H](CC(C)C)C(=O)N[C@@H](CCCCN)C(=O)N[C@@H](CCCCN)C(=O)N[C@@H](C)C(=O)N[C@@H](CCCCN)C(=O)N[C@@H](CCCCN)C(=O)N[C@@H](Cc1ccccc1)C(=O)NCC(=O)N[C@@H](CCCCN)C(=O)N[C@@H](C)C(=O)N[C@@H](Cc1ccccc1)C(=O)N[C@H](C(=O)N[C@@H](CCCCN)C(=O)N[C@@H](CCSC)C(=O)N[C@@H](CCCCN)C(=O)N[C@@H](CCCCN)C(N)=O)C(C)C [GIGKFLKKAKKFGKAFVKMKK]
MIC (Escherichia coli D31): 1.41 µM (≈ 3.37 µg/mL) | MIC (Escherichia coli 1106): 1.41 µM (≈ 3.37 µg/mL) | MIC (Escherichia coli D22): 1.41 µM (≈ 3.37 µg/mL) | MIC (Salmonella typhimurium): 2.83 µM (≈ 6.74 µg/mL) | MIC (Pseudomonas alginovora): 14.1 µM (≈ 33.7 µg/mL) | MIC (Enterococcus faecalis): 12.6 µM (≈ 30.1 µg/mL) | MIC (Staphylococcus aureus): 1.41 µM (≈ 3.37 µg/mL) | MIC (Aerococcus viridans): 0.707 µM (≈ 1.68 µg/mL) | MIC (Micrococcus luteus): 0.707 µM (≈ 1.68 µg/mL) | MIC (Bacillus megaterium): 0.707 µM (≈ 1.68 µg/mL) | MIC [16]: 7.07 µM (≈ 16.8 µg/mL)

CC(C)C[C@H](NC(=O)[C@H](CCCCN)NC(=O)[C@H](CC(C)C)NC(=O)[C@H](CC(C)C)NC(=O)[C@H](CC(C)C)NC(=O)[C@H](CC(C)C)NC(=O)[C@H](CC(C)C)NC(=O)[C@H](CCCCN)NC(=O)[C@H](CC(C)C)NC(=O)[C@@H](N)CCCCN)C(=O)N[C@@H](CCCCN)C(N)=O [KLKLLLLLKLK]
MIC (Escherichia coli W3110): 12.1 µM (≈ 16 µg/mL) | MIC [17]: ≥ 48.4 µM | MIC [18]: 1.51 µM (≈ 2 µg/mL) | MIC [19]: 15.1 µM (≈ 20 µg/mL) | MIC [20]: 0.378 µM (≈ 0.5 µg/mL) | MIC [21]: 12.1 µM (≈ 16 µg/mL) | MIC (Escherichia coli SPE 001): 12.1 µM (≈ 16 µg/mL) | MIC [22]: 22.7 µM (≈ 30 µg/mL)

CC[C@H](C)[C@H](NC(=O)[C@H](Cc1ccccc1)NC(=O)CNC(=O)CNC(=O)[C@H](CO)NC(=O)[C@H](Cc1ccccc1)NC(=O)[C@H](Cc1c[nH]c2ccccc12)NC(=O)[C@H](CCCN=C(N)N)NC(=O)[C@H](Cc1c[nH]c2ccccc12)NC(=O)[C@H](CCCN=C(N)N)NC(=O)[C@H](Cc1c[nH]c2ccccc12)NC(=O)[C@@H](N)CCCN=C(N)N)C(=O)N[C@@H](CCCCN)C(=O)N[C@@H](Cc1cnc[nH]1)C(=O)N[C@@H](Cc1ccccc1)C(=O)N[C@H](C(=O)N[C@@H](Cc1cnc[nH]1)C(=O)N[C@@H](CCCN=C(N)N)C(=O)N[C@@H](Cc1ccccc1)C(N)=O)[C@@H](C)CC [RWRWRWFSGGFIKHFIHRF]
MIC [23]: 23.9 µM (≈ 62.5 µg/mL) | MIC [24]: 3.05 µM (≈ 8 µg/mL) | MIC [25]: 12.2 µM (≈ 32 µg/mL) | MIC [26]: 12.2 µM (≈ 32 µg/mL) | MIC (Staphylococcus aureus): 12.2 µM (≈ 32 µg/mL) | MIC [27]: 12.2 µM (≈ 32 µg/mL)
